Source: patent publication US7678884B2, “Biologically active peptide and agent containing the same” (Seikagaku Corporation, priority 2003, dated 2010)
Ends that are not written are not given here.

Columns and labels:
ST2 cells = assay: Cell differentiation of ST2 cells (ALP activity); format: cell-based, mouse; details: for cell differentiation promoting effect on ST2 cells relative to BMP2: at confluent state (FIG. 7), comparison with BMP2; for cell differentiation promoting effect (ALP activity) on ST2 cells: at confluent state, αMEM containing 2% FBS (FIG. 7)
Description: As mouse-derived osteoblasts, cells of the MC3T3 cell strain or ST2 cell strain (purchased from Riken Cell Bank) were used. • (iii) Rat Femur Bone Marrow-derived Mesenchymal Stem Cells (BMMSC)
(§1) As an index of cell differentiation, alkaline phosphatase (ALP) activity of cells was determined. Cells were inoculated in a 24-well culture plate at a ratio of 5×10^3 cells/well, added with the peptide (a) at various concentrations and cultured in DMEM or αMEM containing 2% FBS. One week after the time point when the cells reached a confluent state, ALP activity was determined by the following enzymochemical method (Bessey-Lowry method, Bessey O A, Lowry O H and Brock M J, A method for the rapid determination of alkaline phosphatase with five cubic millimeter of serum, J. Biol. Chem., 164:321-329, 1946).
(§2) The cultured cells were washed with PBS and then disrupted in 10 mM Tris-HCl buffer (pH 7.4, 500 μl) for 40 seconds by using an ultrasonic homogenizer (Handy Sonic model UR-20P, Tomy Seiko) and stirred. Then, 25 μl of this sample liquid was added to 125 μl of ALP buffer (0.1 M carbonate buffer, pH 9.8, 6.7 mM p-nitrophenyl phosphate, 2 mM MgCl2) and incubated at 37° C. for 30 minutes. The reaction was terminated by addition of 125 μl of 0.2 N NaOH, and absorbance was measured at 405 nm by using a microplate reader (Model 550, Bio-Rad Laboratories).
(§3) Further, the peptides (a) and (b) and BMP2 were similarly examined by using the ST2 cells and BMMSC cells. The symbol “cont” in the figures indicates the results for the cells cultured in αMEM containing 2% FBS alone, “B” indicates the results for the cells cultured in the medium added only with BMP2, “HN” indicates the results for the cells cultured in the medium added only with the peptide (b), and “PN” indicates the results for the cells cultured in the medium added only with the peptide (a). In the figures, the unit of numerical values shown after “B,” “HN” and “PN” is “ng/ml.”
Further, the peptides (b) and (k) to (n) were similarly examined at a final concentration of 100 ng/ml by using the ST2 cell strain. The symbol “cont” in the figure indicates the results for the cells cultured in DMEM containing 2% FBS alone.

[1] = system: Rat femur bone marrow-derived mesenchymal stem cells (BMMSC); assay: Cell differentiation of BMMSC cells (ALP activity); format: cell-based; details: for cell differentiation promoting effect on BMSSC cells relative to BMP2: at confluent state (FIG. 8), comparison with BMP2; for cell differentiation promoting effect (ALP activity) on BMSSC cells: at confluent state, αMEM containing 2% FBS (FIG. 8)
Description: Rat femur bone marrow-derived mesenchymal stem cells (BMMSC) were used. The cell strain of the cells was obtained according to the method of Maniatopoulos et al. (Maniatopoulos C, Sodek J and Melcher A H, Bone formation in vitro by stromal cells obtained from bone marrow of young adult rats, Cell Tissue Res., 254: 317-330, 1988). The femur was aseptically extracted, and surrounding soft tissue was removed as far as possible. The mesiodistal epiphysis of the femur was cut off, and the femur marrow tissue in 5 ml of 15S-containing minimum essential medium alpha medium (αMEM, GIBCO) was injected into 10 ml of the same culture broth by using a syringe. The obtained tissue was cultured in the 15S-containing αMEM at 37° C., and the 3rd to 5th generation cells were used for experiments. • (iv) Mouse-derived Cementoblasts
as §1, §2, §3

PDL cells = assay: Calcification product forming ability of PDL cells (Dahl's calcium staining, alizarin red S); format: cell-based, human; details: peptide at various concentrations, 10 mM sodium β-glycerophosphate, three weeks after confluent state
Description: The following experiment was performed to examine effect of the peptide on calcification product forming ability of cells.
To assess calcification ability of cells, Dahl's calcium staining was performed. The PDL cells were inoculated on a 24-well culture plate at a ratio of 5×10^3 cells/well, and cultured in 2S-containing DMEM added with the peptide (a) or (c) at various concentrations and adjusted by addition of 10 mM sodium β-glycerophosphate. Three weeks after the cells reached a confluent state, the cells were washed with PBS, fixed with neutrally buffered formalin and stained with alizarin red S (Wako Pure Chemical Industries).

bone loss model = assay: Bone loss model (tibia defect, soft X-ray); format: in vivo, Wistar rats; details: for bone regeneration at the bone loss site (X-ray): peptide 3 mg/ml with collagen gel (Koken Atelocollagen Implant), versus control and collagen gel groups
Description: The following experiment was performed in order to examine action of the peptide of the present invention on a bone loss model. • (i) Preparation of Bone Loss Model Male Wistar rats (8-week old) were systemically anesthetized with an ethyl carbamate solution in a volume of 0.5 ml per 100 g of body weight, then the skin of the right and left hind leg tibiae and the periostium of tibiae were incised, and the periostium were reflected to expose the tibiae. Then, a hole having a diameter of 2 mm was perforated in the cortical bone at the same site by using a round bur under pouring physiological saline to form a defect reaching the medullary cavity (diameter: 2 mm, depth: 3 mm). • (ii) Test Method The bone loss site was filled with the peptide (a) (concentration: 0.3 mg/ml or 3 mg/ml) dissolved in a sodium hyaluronate preparation (trade name: ARTZ (registered trade mark), weight average molecular weight of sodium hyaluronate: about 900,000, concentration of sodium hyaluronate: 1%), and the periost and the skin were repositioned and sutured. Healing conditions of the animals 3 weeks after the operation in a group of animals filled with the peptide (peptide group), a group of animals applied with 1% PBS solution of sodium hyaluronate as a vehicle alone (HA group) and a group of animals applied with no substance before the suture of the skin periosteal flap (control group) were examined by using X-ray. • (iii) Results In a similar manner, experiments were performed with collagen gel (trade name: Koken Atelocollagen Implant, Koken) and the peptides (a) and (b) (concentration: 3 mg/ml).

Row | Sequence | cell differentiation promoting effect on ST2 cells relative to BMP2 (ST2 cells) | cell differentiation promoting effect (ALP activity) on ST2 cells (ST2 cells) | cell differentiation promoting effect on BMSSC cells relative to BMP2 [1] | cell differentiation promoting effect (ALP activity) on BMSSC cells [1] | calcification ability of the PDL cells (PDL cells) | bone regeneration at the bone loss site (X-ray) (bone loss model) | bone regeneration at the bone loss site (soft X-ray images) (bone loss model; peptide (a) 0.3 mg/ml or 3 mg/ml in 1% sodium hyaluronate preparation (ARTZ), 3 weeks after operation, versus control and HA groups)
1 | VPAFPRQPGTPGVASL [Peptide (a)] | comparable to or higher than that of BMP2 | significant cell differentiation promoting effect | comparable to or higher than that of BMP2 | significant cell differentiation promoting effect | significantly increased | bone had been regenerated to such an extent that bone loss could hardly be recognized | bone had been regenerated to such an extent that bone loss could hardly be recognized
2 | VPFFPQQSGTPGMASL [Peptide (b), peptide designed on the portion of human-derived sheathlin protein corresponding to (a)] | comparable to or higher than that of BMP2 | significant cell differentiation promoting effect | comparable to or higher than that of BMP2 | significant cell differentiation promoting effect |  | bone had been regenerated to such an extent that bone loss could hardly be recognized | 
